Experimental data from patent US8530404B2, “Compounds and methods for treatment of cancer” (FibroGen, Inc., priority 2005, dated 2013).
Marks after values point to notes of the source that are not given here.

What was measured:
[1] = tested on: human H-460-GFP lung tumors; assay: Orthotopically implanted human H-460-GFP lung tumor mouse xenograft, survival and metastasis (Example 3); format: in vivo; details: for Metastatic Incidence (proportion of animals exhibiting mediastinal lymph node metastasis): vehicle 9/10
Method: To examine the effect of methods and compounds of the present invention in a metastatic model of tumor progression, compounds of the invention were administered to orthotopically implanted H-460-GFP xenografted animals. Tumor models employing surgical orthotopic implantation (SOI) into the organ of origin of the original tumor are regarded as representative of cancer progression and metastasis in humans. Orthotopic implantation of H-460 increases the rate of tumor metastasis.
This experiment is carried out as described in Example 1 above, with the following modifications. To aid in identification and scoring of metastasis, the human H-460 lung cancer cell line was replaced by genetically-engineered tumors of GFP-transfected H-460 cells. 1-2 mm^3 H460-GFP lung tumor fragments were implanted by surgical orthotopic implantation (SOI) and sutured directly into lung tissue. (Yang et al., (1998) Cancer Res 58:4217-4221.) Dosing was initiated immediately after successful confirmation of tumor take by fluorescent GFP imaging (˜5 days following tumor implantation). Doxorubicin (DOX, 7.5 mg/kg, i.v. administration) was used as a chemotherapy control, and was administered on treatment days 3, 7, and 11.
In addition to weekly caliper measurement of primary tumor size, GFP imaging was performed on animals to monitor primary tumor progression and metastasis, starting the first day of treatment. Study endpoints were reached when an average tumor size of 2 cc or three morbid mice appear in any one group, whichever occurs first, regardless of treatment duration. Each animal was checked daily for mortality or signs of morbidity. Morbid animals were frozen. All animals, including dead animals, were examined by GFP imaging for primary tumor and metastasis at necropsy. Imaging and caliper measurements were used to determine the effects of treatment. Primary tumors were excised, measured and weighed at necropsy. Blood samples were taken during terminal sacrifice and complete blood counts (CBC) and reticulocyte analysis were performed.
Tumor metastasis is associated with increased morbidity and mortality in humans with metastatic cancer and in animal models of metastatic cancer. […] The increased morbidity and mortality were recorded and animals were preserved for subsequent necropsy. The study was terminated after >3 animals were found morbid in the vehicle group on treatment day 14, at which point the remaining animals were sacrificed to evaluate and compare tumor progression in the various treatment groups.
To determine metastatic frequency, the thoracic and abdominal cavities of animals were examined by fluorescent imaging.

human H-460 lung tumors = assay: Subcutaneously implanted human H-460 lung tumor mouse xenograft (Example 1); format: in vivo; details: for Mean Tumor Weight at Necropsy: day 32
Excerpt: Immuno-compromised athymic CD-1 nu/nu nude mice males (5-6 weeks old) were used in this study (Charles River Laboratories, Wilmington, Mass.). Animals were maintained in a HEPA-filtered environment during the experimental period. Cages, food, and bedding were autoclaved. Animal diets were obtained from Harlan Teklad (Madison, Wis.). […] The human H460 lung cancer cell line used was obtained from the National Cancer Institute. (Brower et al., (1986) Cancer Res 46:798-806.) Xenografted H-460 tumors are sensitive to chemotherapeutics commonly used in treatment of lung cancer. […] A stock tumor was established by subcutaneously injecting a cell suspension into nude mice. The resulting tumor was maintained in nude mice subcutaneously as tumor stock prior to use. Tumor implantation was performed when the stock tumors were in log phase of growth. Before implantation, tumor tissue was harvested from stock mice and placed in RPMI-1640 medium. Necrotic tissues were dissected away and viable tissues were cut into 1-2 mm^2 pieces. Tumor fragments were then transplanted subcutaneously to the right flank of the nude mice. Treatment (administration of compounds of the present invention) was started when the inoculated tumors reached approximately 100 mm^3, and continued for four weeks. […] [table] Sizes of the primary tumors were measured through the skin with calipers once per week. […] Body weight of the mice in each group was also measured once per week during the experimental period. All animals were sacrificed following thirty-two days of treatment. Primary tumors were excised and weighed on an electronic balance. Blood samples were taken during terminal sacrifice and placed in microhematocrit tubes containing EDTA. Complete Blood Counts (CBC) and reticulocyte analysis were performed with the Cell Dyn 3700 analyzer (Abbott Diagnostics), as described by the manufacturer.

BNIP3 gene expression = BNIP3 gene expression in Kelly neuroblastoma cells; format: cell-based; details: Kelly, read-out: fold-increase in BNIP3 mRNA expression
Method: To identify compounds useful in the methods of the present invention, the following studies were performed. The effect of compounds of the present invention on expression of various genes associated with anti-tumor activity (e.g., genes having anti-proliferative activity, genes having pro-apoptotic activity, genes having anti-tumor activity, etc.). In these experiments, the effect of compounds on BNIP3, BNIP3L, NDRG1, CDKN1C, and REDD1/RTP801 gene expression in various types of cultured tumor cells line was examined, including Hep3B cells (human hepatocellular carcinoma), Kelly neuroblastoma cells, and MCF7 cells (human breast cancer)
The effects of various compounds of the present invention on the expression of genes associated with tumor growth and progression were examined in Kelly neuroblastoma cells as follows. Kelly neuroblastoma cells were grown in RPMI media. For each experiment, Kelly neuroblastoma cells were added to 96-well tissue culture plates (approximately 40,000 cells per well) such that the plated cells reached confluence the following day. On the following day, the cells were washed and the media replaced with RPMI containing 0.5% FBS. Various compounds of the present invention were added to the cultured cells to a final concentration of 20 μM, and the cells cultured for an additional 20-24 hours. DMSO (0.5%) was added to control cell cultures.
RNA was isolated from the Kelly neuroblastoma cells using a commercial kit and used for the preparation of cDNA. BNIP3, CDKN1C, and 18S RNA levels were measured using commercial kits (18S, Applied Biosystems cat#4319413E); BNIP3, Applied Biosystems cat#HS00969293 MH). RNA levels for BNIP3 and CDKN1C were normalized to that of 18S RNA and is presented as fold-change compared to that observed in DMSO control cultures. Kelly cell NDRG1 and BNIP3L mRNA levels were measured by Affymetrix microarray in a separate study. Cells were harvested after 6 hours incubation with 20 μM test compound or DMSO (0.5%) as control. RNA was isolated and labeled probes were prepared and hybridized to U133 Plus 2.0 Affymetrix microarrays. Changes in gene expression levels are presented as fold change compared to that of control (0.5% DMSO-treated) cultures.

| SMILES | Metastatic Incidence (proportion of animals exhibiting mediastinal lymph node metastasis) ([1]; 20 mg/kg) | proportion of surviving animals ([1]; treatment day 9, 20 mg/kg) | proportion of surviving animals ([1]; treatment day 11, 20 mg/kg) | proportion of surviving animals ([1]; treatment day 12, 20 mg/kg) | proportion of surviving animals ([1]; treatment day 13, 20 mg/kg) | proportion of surviving animals ([1]; treatment day 14, 20 mg/kg) | mean tumor volume (human H-460 lung tumors; day 0, 20 mg/kg PO) [mm^3] | mean tumor volume (human H-460 lung tumors; day 10, 20 mg/kg PO) [mm^3] | mean tumor volume (human H-460 lung tumors; day 17, 20 mg/kg PO) [mm^3] | mean tumor volume (human H-460 lung tumors; day 24, 20 mg/kg PO) | mean tumor volume (human H-460 lung tumors; day 31, 20 mg/kg PO) | Mean Tumor Weight at Necropsy (human H-460 lung tumors; 20 mg/kg PO) [g] | fold induction at 20 µM (BNIP3 gene expression) | further results |
| --- | --- | --- | --- | --- | --- | --- | --- | --- | --- | --- | --- | --- | --- | --- |
| O=C(O)CNC(=O)c1nc(Cl)c2ccccc2c1O [Compound A, [(1-Chloro-4-hydroxy-isoquinoline-3-carbonyl)-amino]-acetic acid] | 8/10 | 10/10 | 10/10 | 10/10 | 8/10 | 8/10 | 88 | 730 | 1376 | 2499** mm^3 | 2670** mm^3 | 3.05 |  | Metastatic Incidence (proportion of animals exhibiting mediastinal lymph node metastasis) ([1]; 60 mg/kg): 7/10; proportion of surviving animals ([1]; treatment day 9, 60 mg/kg): 10/10; proportion of surviving animals ([1]; treatment day 11, 60 mg/kg): 10/10; proportion of surviving animals ([1]; treatment day 12, 60 mg/kg): 9/10; proportion of surviving animals ([1]; treatment day 13, 60 mg/kg): 9/10; proportion of surviving animals ([1]; treatment day 14, 60 mg/kg): 9/10; mean tumor volume (human H-460 lung tumors; day 0, 60 mg/kg PO): 105 mm^3; mean tumor volume (human H-460 lung tumors; day 10, 60 mg/kg PO): 895 mm^3; mean tumor volume (human H-460 lung tumors; day 17, 60 mg/kg PO): 1742 mm^3; mean tumor volume (human H-460 lung tumors; day 24, 60 mg/kg PO): 2662* mm^3; mean tumor volume (human H-460 lung tumors; day 31, 60 mg/kg PO): 2968* mm^3; Mean Tumor Weight at Necropsy (human H-460 lung tumors; 60 mg/kg PO): 3.09 g |
| C[C@H](NC(=O)c1ncc2cc(Oc3ccccc3)ccc2c1O)C(=O)O [Compound B, (S)-2-[(4-Hydroxy-7-phenoxy-isoquinoline-3-carbonyl)-amino]-propionic acid] |  |  |  |  |  |  | 108 | 914 | 1858 | 3074 mm^3 | 3229 mm^3 | 3.60 | 17.2 | mean tumor volume (human H-460 lung tumors; day 0, 6 mg/kg PO): 101 mm^3; mean tumor volume (human H-460 lung tumors; day 10, 6 mg/kg PO): 884 mm^3; mean tumor volume (human H-460 lung tumors; day 17, 6 mg/kg PO): 1949 mm^3; mean tumor volume (human H-460 lung tumors; day 24, 6 mg/kg PO): 3131 mm^3; mean tumor volume (human H-460 lung tumors; day 31, 6 mg/kg PO): 3343 mm^3; Mean Tumor Weight at Necropsy (human H-460 lung tumors; 6 mg/kg PO): 4.27 g |
| COc1ccc(Oc2ccc3c(O)c(C(=O)NCC(=O)O)ncc3c2)cc1 [Compound C, {[4-Hydroxy-7-(4-methoxy-phenoxy)-isoquinoline-3-carbonyl]-amino}-acetic acid] | 5/10 | 10/10 | 10/10 | 9/10 | 8/10 | 8/10 | 91 | 638 | 1365 | 2239** mm^3 | 2373** mm^3 | 2.35 | 2.6 |  |
| Cc1nc(C(=O)NCC(=O)O)c(O)c2ccc(Oc3ccccc3)cc12 [Compound D, [(4-Hydroxy-1-methyl-7-phenoxy-isoquinoline-3-carbonyl)-amino]-acetic acid] | 9/10 | 10/10 | 9/10 | 9/10 | 9/10 | 9/10 |  |  |  |  |  |  | 21.9 |  |
| O=C(O)CNC(=O)c1ncc2cc(Oc3ccc(F)cc3)ccc2c1O [Compound E, {[7-(4-fluoro-phenoxy)-4-hydroxy-isoquinoline-3-carbonyl]-amino}-acetic acid] |  | 9/10 | 9/10 | 9/10 | 8/10 | 8/10 |  |  |  |  |  |  | 31.8 |  |
